# Experimental data reported in US20160228444A1, “NUCLEOSIDE ANALOGS AND USES THEREOF” (Ramot at Tel-Aviv University Ltd., priority 2015, published 2016).
# Where two headings read alike, the source gives them in different places.
# How the values were obtained:
# [1] = test system: HDACs of classes I and II; test: HDAC activity in intact cells (Fluor de Lys kit); type: cell-based, human; conditions: both U251 and Daudi cells, 2 h, FIG. 1B
# Description: U251 or Daudi cells seeded in 96-well plates (10^4 cells/well, in quadruplicates) in growth medium for 24 h were then treated as indicated for 2 h in the presence of the HDAC substrate (Fluor de Lys™). The reaction was terminated by the addition of the Fluor de Lys™ developer (Biomol Research Labs) and […] trichostatin A (TSA). All of the above reagents were included in a kit for measuring activities of HDACs of classes I and II (AK-503, Biomol Research Labs). The percentage inhibition was calculated from the ratio of the fluorescence (measured at 355 nm excitation and at 460 nm emission) in the drug treated compared with the untreated control culture.
# IL-10 = IL-10 in supernatant of LPS-treated THP1 cells (ELISA); type: cell-based; conditions: 1 μg/ml LPS, FIG. 7B
# Description: The effect of AN446 on inflammation-associated pathways was evaluated in the monocytic THP1 cell line and in the MDA-MB-231 breast carcinoma cell line. Supernatants of treated THP1 cells were collected and IL-6, IL-10 and TNF-α concentrations were quantified by ELISA (R&D systems). TLR4 expression in THP1 cells was assessed using fluorescent anti-TLR4 antibodies and FACS analysis. In addition, gene expression for MCP-1, TNF-α and TLR4 in MDA-MB-231 was evaluated by qRT-PCT, following treatment with AN446 and/or paclitaxel.
# U251 cells = test: Hoechst viability assay 72 h / median-effect combination study; conditions: Homo sapiens, U-251, 72 h, read-out: IC50 value for viability in U251 cells after 72 hours
# Description: Hoechst assay: 22RV-1, MCF-7, MCF-7DX, 4T1, U251, and T47D cells (3×10^3 cells/well) and NCI-N87 (8×10^3 cells/well) were seeded in tissue culture in growth medium for 24 h in 96-well plates (in triplicate) and then exposed to different concentrations (titration) of the tested drug for 72 h at 37° C. The plates were then rinsed with PBS and fixed with 100 ml of 70% ethanol for 30 min. […] The fluorescence was measured (excitation at 390 nm and emission at 460 nm) with a Synergy III Fluorometer-Elisa reader (BioTek Instruments, Inc. Germany).
# The Median Effect Analysis (MEA) for a constant combination ratio was used for drugs interaction and the combination index (CI) determination.
# The average values of three independent experiments were calculated and analyzed with CalcuSyn software.
# Rad51 in U251 cells = test: Rad51 (Western blot), 24 or 48 hours; type: cell-based, human; conditions: FIG. 14A
# Description: (§1) The effects of the abovementioned HDAC inhibitors on DNA damage and repair were then assessed by evaluating changes in levels of phosphorylated histone H2AX (pH2AX), a marker of DNA double-strand breaks, and Rad51, a marker of homologous recombination-guided DNA repair of double-strand breaks [Nagathihalli & Nagaraju, Biochim Biophys Acta 2011, 1816:209-218; Rogakou et al., J Biol Chem 1998, 273:5858-5868].
# (§2) U251 and H9C2 cells were treated with the HDAC inhibitors for 24 or 48 hours, and then subjected to Western blot analysis.
# PBL = test: Median-effect drug interaction, MTT viability, 72 h; type: cell-based; conditions: Homo sapiens
# Description: Cell viability was determined by an MTT cell viability assay after 48 hours. MyLa cells (10^4 cells/well), Hut78 cells (5×10^3 cells/well) and normal PBLs (10^5 cells/well) were seeded in 96 well-plates. The PBLs were activated with 40 μg/10^6 cells of phytohemagglutinine (PHA) for 24 h before the experiment.
# The ratios of the drug combination were based on the ratio of their IC50 of each drug alone. Cell viability was determined by MTT assay, as described hereinabove. The drugs were added to the cells and incubated for 72 h.
# [2] = test system: proliferating fibroblasts in cardiac tissue; test: Proliferating fibroblasts in heart sections (Ki67 / vimentin immunostaining); type: in vivo, mice; conditions: co-administration with doxorubicin, FIGS. 8B, 8C
# From the text: In addition, by double-staining heart sections by immunostaining for the fibroblast marker vimentin and the proliferation marker Ki67, it was observed that most of the proliferating (Ki67-positive) cells in hearts of doxorubicin-treated mice were fibroblasts (vimentin-positive).
# Rad51 in H9C2 cells = test: Rad51 (Western blot), 24 or 48 hours; type: cell-based, rat; conditions: FIG. 14B
# Description: as §1, §2
# bFGF = bFGF protein and mRNA in tumor and heart of xenograft mice (Western blot, qRT-PCR); type: in vivo; conditions: for expression of mouse bFGF protein in the heart: FIG. 4D; for expression of bFGF in tumors / bFGF mRNA in the tumor: tumor; for bFGF mRNA in the tumor: FIG. 6
# Description: Tumors and hearts of the mice were rapidly removed, frozen on dry ice and kept at −70° C. Tissue was then homogenized and RNA and proteins extracted using the NucleoSpin® RNA/Protein kit according to the manufacturer's protocol (Macherey-Nagel, GmbH & Co KG).
# Total RNA ([…]) was primed by oligo dT and reverse-transcribed by Verso cDNA kit according to the manufacturer's protocol (Thermo Scientific). Analyses of qPCR were performed with Kapa Sybr® Fast (Kapa Biosystems) on a Step One Plus thermocycler (Applied Biosystems). The comparative threshold method was used to calculate the relative gene expression. Values were normalized against glyceraldehyde 3-phosphate dehydrogenase (GAPDH). Expression of the GAPDH mRNA in each individual sample was used to normalize the dataset. The sequences of the primers were as follows: […]
# Protein levels in the samples were determined with the BCA protein assay kit (Pierce). The samples were subjected to Western blot analyses. The expression of proteins was visualized using their specified primary antibodies followed by the secondary IgG IRDye® 680DX antibody. Each detected band was quantified using the Odyssey Infrared Imaging System (LI-COR Biosciences) and normalized to the level of actin. The fold increase of a specific protein was determined by the ratio of the band intensity obtained from treated and untreated samples.
# The pro-angiogenic factors basic fibroblast growth factor (bFGF) and vascular endothelial growth factor (VEGF) are potent angiogenic stimulators. The expression of bFGF in the tumor and in the heart was evaluated by Western blot and qRT-PCR analyses and expression of VEGF by IHC.
# IL-6 = test: LPS-induced IL-6 secretion by normal human astrocytes (sandwich-ELISA); type: cell-based; conditions: 20 μM, LPS 1 μg/ml 24 hours, FIG. 16
# Description: Normal human astrocytes (NHA) were treated with 20 μM AN446, and lipopolysaccharide (1 μg/ml) was then added for 24 hours, and the supernatants of the cultured cells were collected. IL-6 concentrations in cell culture supernatants were quantified by sandwich-ELISA using specific pairs of mAb antibodies (R&D).
# [3] = test system: acetylated H3 histone in H9C2 cardiomyoblasts; test: Histone H3 acetylation (Western blot), 24 hours; type: cell-based, rat; conditions: FIG. 12
# Description: The effects of the abovementioned HDAC inhibitors on histone acetylation were also compared. U251 and H9C2 cells were treated with the HDAC inhibitors for 24 hours (according to procedures described hereinabove with respect to FIGS. 9 and 10), and then subjected to Western blot analysis.
structure (smiles),measurement,setting,value
"CCCC(CCC)C(=O)Nc1nc2c(ncn2COCCOC(=O)C(CCC)CCC)c(=O)[nH]1 [AN446, N-valproyl-9-(2-valproyloxy)ethoxymethyl-guanine]",potency as HDAC inhibitor relative to AN7,[1],2-3 fold
same,expression of IL-10,IL-10,doubled
same,IC50,U251 cells,20 µM
same,expression of Rad51 in U251 cancer cells,Rad51 in U251 cells,reduced expression of Rad51
same,IC50,"PBL; read-out: com IC50, PBL, in combination with Dox",187 µM
same,IC50,"PBL; single agent, Table 2",198 µM
same,doxorubicin-induced proliferation of fibroblasts in cardiac tissue,[2],significantly reduced the doxorubicin-induced proliferation of fibroblasts
same,expression of Rad51 in cardiomyocytes (H9C2),Rad51 in H9C2 cells,moderately increased expression
same,expression of mouse bFGF protein in the heart,bFGF; co-treatment with Dox,significantly increased its expression to a level higher than that observed in naive or vehicle-treated mice
same,expression of mouse bFGF protein in the heart,bFGF; single agent,unchanged
same,expression of bFGF in tumors,bFGF; combination with Dox,further diminished
same,bFGF mRNA in the tumor,bFGF; combined treatment with Dox,suppressed it significantly further
same,bFGF mRNA in the tumor,bFGF; single agent,significantly reduced the bFGF mRNA
same,expression of bFGF in tumors,"bFGF; single agent, FIGS. 4A, 4B",decreased significantly
same,lipopolysaccharide-induced secretion of IL-6 by human astrocytes,IL-6,inhibited
same,histone acetylation in H9C2 cardiomyocytes,[3],not in non-cancerous cardiomyocytes
